Test results from article PMC8291587, “Guanidine Derivatives: How Simple Structural Modification of Histamine H3R Antagonists Has Led to the Discovery of Potent Muscarinic M2R/M4R Antagonists” (ACS Chemical Neuroscience, 2021).
Where two headings read alike, the source gives them in different places.

Key:
H1R [1] = molecular target: T1, H1R (Cavia porcellus, UniProt P31389); assay: Ex vivo screening of histamine H1R antagonists on guinea pig ileum, variant with 0.05 μM atropine; details: isolated guinea pig ileum, histamine as agonist
T1 construct: from tissue; host or cells: isolated distal ileum of male guinea pigs
Method: (§1) The second histamine receptor located in the guinea pig ileum is H1R. […] The H1R antagonistic effect was measured on isolated guinea pig ileum stimulated to contract by histamine.[37] To assess and exclude the influence of the ADS compounds on muscarinic receptors, two test variations were used: one with the addition of 0.05 μM atropine and one without.
(§2) Male guinea pigs, weighing 300–400 g, were euthanized by a blow to the neck. A 20–30 cm length of the distal ileum, apart from the terminal 5 cm, was rapidly removed and placed in phosphate buffer at room temperature (pH 7.4) containing (mM) NaCl (136.9), KCl (2.6), KH2PO4 (1.47), Na2HPO4 (9.58), and indomethacin (1 × 10^–6 mol/L). The intraluminal content was rinsed, and the isolated intestine was cut into 1.5–2 cm segments. The preparations were mounted isotonically in a 20 mL organ bath filled with Krebs buffer: composition (mM) NaCl (118), KCl (5.6), MgSO4 (1.18), CaCl2 (2.5), NaH2PO4·H2O (1.28), NaHCO3 (25), glucose (5.55), and indomethacin (3 × 10^–7 mol/L). […] The solution was continuously bubbled with a 95% O2:5% CO2 mixture and maintained at 37 °C under a constant load of 0.5 g (Hugo Sachs Hebel–Messvorsatz (Tl-2)/HF-modem; Hugo Sachs Elektronik, Hugstetten, Germany) connected to a pen recorder (Kipp & Zonen BD41, Delft, Holland). During an equilibration period of 40 min, Krebs buffer was changed every 10 min. The first cumulative concentration–response curve was determined for histamine (10 nM to 10 mM) at increasing concentrations spaced by 3- or 3.3-fold. The second to the fourth (or fifth) curves were measured in the presence of an increasing concentrations of antagonist (incubation time 10 min). The pA2 values were calculated according to Arunlakshana and Schild.[37] Statistical analysis was carried out with the Students’ t test. In all tests, a p < 0.05 was considered statistically significant.

H1R [2] = molecular target: T1, H1R; assay: Ex vivo screening of histamine H1R antagonists on guinea pig ileum, variant without atropine; details: isolated guinea pig ileum, histamine as agonist
Method: as §1, §2

[3] = system: electrically stimulated guinea pig ileum; assay: Decrease of contractility in electrically stimulated guinea pig ileum (-log EC50 determination); details: for EC50: Cavia porcellus, read-out: Decrease of contractility (-logEC50 ± sem) (converted); for intrinsic activity (maximal response as fraction of maximal response of the system): from concentration–response curves
Method: A standard ex vivo assay based on the relaxant response of histamine H3R agonists to electrically driven guinea pig ileum was used to test the influence of ADS compounds on the reduction of electrically evoked tissue contraction. […] The −log EC50 value for RAMH and ADS compounds were evaluated. […] Following this, we decided to evaluate the ADS series as potential M2R/M3R ligands on the isolated guinea pig ileum.
Male guinea pigs, weighing 300–400 g, were euthanized by a blow to the neck. A 20–30 cm length of the distal ileum, apart from the terminal 5 cm, was rapidly removed and placed in phosphate buffer at room temperature (pH 7.4) containing (mM) NaCl (136.9), KCl (2.6), KH2PO4 (1.47), Na2HPO4 (9.58), and indomethacin (1 × 10^–6 mol/L)). The intraluminal content was rinsed, and the isolated intestine was cut into 1.5–2 cm segments. The preparations were mounted between two platinum electrodes isotonically in a 20 mL organ bath filled with Krebs buffer: composition (mM) NaCl (118), KCl (5.6), MgSO4 (1.18), CaCl2 (2.5), NaH2PO4·H2O (1.28), NaHCO3 (25), glucose (5.55), and indomethacin (3 × 10^–7 mol/L). The solution was continuously bubbled with a 95% O2:5% CO2 mixture and maintained at 37 °C under a constant load of 1.0 g (Hugo Sachs Hebel–Messvorsatz (Tl-2)/HF-modem; Hugo Sachs Elektronik, Hugstetten, Germany) connected to a pen recorder (Kipp & Zonen BD41, Delft, Holland). During an equilibration period of 60 min, Krebs buffer was changed every 10 min. Following this, the preparations were continuously stimulated at 15–20 V, at a frequency of 0.1 Hz for a duration of 0.5 ms, with rectangular-wave electrical pulses (Grass Stimulator S-88; Grass Instruments Co., Quincy, Massachusetts, USA). […] Cumulative concentration–response curve was determined to RAMH or tested agonist (10 nM to 10 mM) at increasing concentrations spaced by 3- or 3.3-fold. The agonist potency is expressed as pD2 value (−log EC50) ± sem.

[4] = read-out: H1R+atropine pA2 gpi ± sem (converted)
[5] = read-out: H1R pA2 gpi ± sem (converted)
[6] = electrically stimulated guinea pig ileum

T1 sequence (P31389 whole entry): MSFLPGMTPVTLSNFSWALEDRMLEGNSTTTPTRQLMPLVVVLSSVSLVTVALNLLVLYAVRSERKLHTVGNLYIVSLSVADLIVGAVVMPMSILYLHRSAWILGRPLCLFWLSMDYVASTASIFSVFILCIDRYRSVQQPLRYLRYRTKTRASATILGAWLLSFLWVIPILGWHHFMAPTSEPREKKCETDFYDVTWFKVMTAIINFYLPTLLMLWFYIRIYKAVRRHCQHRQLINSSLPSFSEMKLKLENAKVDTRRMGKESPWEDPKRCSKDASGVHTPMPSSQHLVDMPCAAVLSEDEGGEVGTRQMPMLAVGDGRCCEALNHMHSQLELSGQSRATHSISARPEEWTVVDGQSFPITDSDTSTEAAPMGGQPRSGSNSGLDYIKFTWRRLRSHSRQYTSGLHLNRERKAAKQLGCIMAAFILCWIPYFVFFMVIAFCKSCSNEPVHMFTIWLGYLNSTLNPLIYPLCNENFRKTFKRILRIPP

Compound | Kb (H1R [1]; H1R+atropine pA2 gpi ± sem) | Kb (H1R [2]; H1R pA2 gpi ± sem) | EC50 [3] | Kb (H1R [1]; [4]) | Kb (H1R [2]; [5]) | EC50 [3, 6] | intrinsic activity (maximal response as fraction of maximal response of the system) [3, 6]
N=C(N)N(CCCCN1CCN(CCCCCCCOc2ccccc2)CC1)Cc1ccccc1 [ADS1017] | 251 nM | 331 nM | 661 nM | – | – | – | –
N=C(N)N(CCCCN1CCN(C[C@H]2CC[C@@H](COc3ccccc3)CC2)CC1)Cc1ccccc1 [ADS10227, 1-{4-{4-{[4-(phenoxymethyl)cyclohexyl]methyl}piperazin-1-yl}but-1-yl}-1-(benzyl)guanidine] | – | – | – | 257 nM | 70.8 nM | 132 nM | 0.97
[H]/N=C(/N)N(CCCCN1CCN(CC2CCC(COc3ccccc3)CC2)CC1)Cc1ccc(C(F)(F)F)cc1 (centres unmarked) [ADS10239] | – | – | – | 151 nM | 110 nM | 240 nM | 0.98
